Experimental data published in ChEMBL document CHEMBL1201862, “PubChem BioAssay data set” (2004).
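Where inhibition never reached the appropriate level, the endpoint shown equals the highest concentration tested. Otherwise, values were interpolated linearly from a five-concentration, 48-hour dose response in 96-well plates. Abbreviation: GI50, concentration required for 50% inhibition of growth.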 Activity calls are given as the source filed them. No stated cut-off is given here; in the data, active = GI50 up to about 1.1 µM and inactive = higher.

Assays:
Experiment in all cases: growth of human tumour cells (NCI), 48 h
OVCAR-4 = test system: OVCAR-4
RXF 393 = test system: RXF 393
XF498 = test system: XF498
DMS-273 = test system: DMS-273
A498 = test system: A498
MOLT-4 = test system: MOLT-4
NCI/ADR-RES = test system: NCI/ADR-RES
KM-20L2 = test system: KM-20L2
SK-OV-3 = test system: SK-OV-3
MCF7 = test system: MCF7
HOP-18 = test system: HOP-18
NCI-H460 = test system: NCI-H460
SK-MEL-2 = test system: SK-MEL-2
DLD-1 = test system: DLD-1
IGROV-1 = test system: IGROV-1
DU-145 = test system: DU-145
T47D = test system: T47D
MDA-MB-435 = test system: MDA-MB-435
MDA-N = test system: MDA-N
LXFL 529 = test system: LXFL 529

| Structure (SMILES) | GI50 (OVCAR-4) | GI50 (RXF 393) | GI50 (XF498) | GI50 (DMS-273) | GI50 (A498) | GI50 (MOLT-4) | GI50 (NCI/ADR-RES) | GI50 (KM-20L2) | GI50 (SK-OV-3) | GI50 (MCF7) | GI50 (HOP-18) | GI50 (NCI-H460) | GI50 (SK-MEL-2) | GI50 (DLD-1) | GI50 (IGROV-1) | GI50 (DU-145) | GI50 (T47D) | GI50 (MDA-MB-435) | GI50 (MDA-N) | GI50 (LXFL 529) |
| --- | --- | --- | --- | --- | --- | --- | --- | --- | --- | --- | --- | --- | --- | --- | --- | --- | --- | --- | --- | --- |
| Cc1ccccc1-c1nc2c(C(=O)NCCN(C)C)cccc2[nH]1 | 49.1 µM (inactive) | 78.9 µM (inactive) | 39.7 µM (inactive) | 31.5 µM (inactive) | 42.3 µM (inactive) | 27 µM (inactive) | 34.3 µM (inactive) | 25.6 µM (inactive) | 46.5 µM (inactive) | 41 µM (inactive) | 8.02 µM (inactive) | 30.2 µM (inactive) | > 85.3 µM (inactive) | 37.7 µM (inactive) | 58.5 µM (inactive) |  |  |  |  |  |
| COc1ccc(-c2nnc(-c3ccncc3)o2)cc1 | > 100 µM (inactive) | > 100 µM (inactive) |  |  | > 100 µM (inactive) | > 100 µM (inactive) | > 100 µM (inactive) |  | > 100 µM (inactive) | > 100 µM (inactive) |  |  | > 100 µM (inactive) |  | > 100 µM (inactive) | > 100 µM (inactive) | > 100 µM (inactive) | > 100 µM (inactive) | > 100 µM (inactive) |  |
| Cc1ccc(NC(=O)c2cccc([N+](=O)[O-])c2O)c(C)c1 | 11.6 µM (inactive) |  |  |  | 12.9 µM (inactive) | 19.3 µM (inactive) |  | 21.5 µM (inactive) | 22.9 µM (inactive) |  | 1.02 µM (active) | 26.4 µM (inactive) | 7.73 µM (inactive) | 14.3 µM (inactive) | 9.84 µM (inactive) |  |  |  |  | 14.7 µM (inactive) |
| CC(=O)ON1C(=O)c2cccc3cccc(c23)C1=O | 11.7 µM (inactive) | 7.23 µM (inactive) |  |  | 25.8 µM (inactive) | 15.6 µM (inactive) | 34.3 µM (inactive) |  | 34.4 µM (inactive) | 16 µM (inactive) |  | 7.93 µM (inactive) | 18.3 µM (inactive) |  | 7.28 µM (inactive) | 15.1 µM (inactive) | 20.8 µM (inactive) | 14.7 µM (inactive) | 18.3 µM (inactive) |  |
